{"source": "paper PMC8151276", "about": "“An Integrated Approach toward NanoBRET Tracers for Analysis of GPCR Ligand Engagement” (Molecules, 2021)", "key": {"[1]": {"biological_target": "T1, CCR6 (Homo sapiens, UniProt P51684)", "T1 construct": "purchased Promega (in-house HiBiT-GPCR construct library, NanoBRET)", "T1 sequence (P51684 1-374)": "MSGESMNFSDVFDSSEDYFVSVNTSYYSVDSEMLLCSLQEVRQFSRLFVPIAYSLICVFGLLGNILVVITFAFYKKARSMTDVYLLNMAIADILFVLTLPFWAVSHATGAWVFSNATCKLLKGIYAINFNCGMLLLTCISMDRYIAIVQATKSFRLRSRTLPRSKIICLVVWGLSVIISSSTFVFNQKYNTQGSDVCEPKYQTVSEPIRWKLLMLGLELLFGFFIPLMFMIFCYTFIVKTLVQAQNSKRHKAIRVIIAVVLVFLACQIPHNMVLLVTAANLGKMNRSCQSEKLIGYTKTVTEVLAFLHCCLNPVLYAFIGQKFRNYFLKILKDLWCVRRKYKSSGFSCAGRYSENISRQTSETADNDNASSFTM", "assay": "NanoBRET screen HiBiT-CCR6 in HEK293", "type": "binding", "details": "CCR6", "description": "(§1) Each tracer candidate was screened across the entire library of HiBiT-GPCR constructs using NanoBRET as the detection modality. As depicted in Figure 4A, the specificity of interactions was evaluated through decrease in BRET due to competitive displacement of a bound tracer by excess parental compound. Each tracer was analyzed for binding to each HiBiT-GPCR fusion in the absence and in the presence of competing parental compound. Briefly, HEK293 cells were transfected with HiBiT-GPCR constructs diluted into promoterless DNA to reduce expression and maximize translocation to the cell surface. Each tracer candidate was then screened at concentrations of 1 μM and 0.1 μM across cells expressing these fusions. Cells were treated for 1.5 h with tracer either alone or in the presence of 20 μM competing parental compound (i.e., control). BRET was measured upon addition of purified LgBiT and subsequent complementation with HiBiT genetically fused to a GPCR. The specificity of interactions was assessed through a decrease in BRET signal due to competitive displacement of the bound tracer. To further gauge the robustness of these interactions, the fold response over the control (i.e., BRETtracer/BRETcontrol) was calculated. We chose a 1.5-fold response, which translates to ≥7-fold signal over noise as the minimal threshold required to score an interaction as positive. […]. Below we highlight the screening results obtained for our exemplary fluorescent tracers based on Clozapine, Amitriptyline and AZD1283.\n(§2) HiBiT-GPCR DNA constructs were diluted in 10 mM Tris pH 8 to a final concentration of 0.01 μg/μL, arrayed in 96-well plates and stored at −20 °C. For transfection, HEK293 cells were suspended in Opti-MEM (without phenol red) supplemented with 2% fetal bovine serum (Seradigm) and 100 units/mL penicillin–streptomycin (Gibco) at a final concentration of 220,000 cells/mL and dispensed into white 96-well plates at 90 μL/well. Subsequent transfections and screens were carried using an Agilent Bravo Automated Liquid Handling Platform. First, the 96-well HiBiT DNA arrays were diluted 25-fold in Opti-MEM (without serum or phenol red) to a final concentration of 0.0004 μg/μL and 20 μL of the diluted DNAs were transferred into new 96-well plates. Next, promoterless carrier DNA (1 μg/μL) was diluted 25-fold (0.04 μg/μL) and then dispensed into the diluted arrays at 20 μL/well. Following brief mixing, Viafect transfection reagent (Promega) diluted 16-fold into Opti-MEM was dispensed into the plates at 40 μL/well. After mixing by pipetting, plates were incubated for 10 min on the pipetting station deck. The DNA-transfection reagent complexes were then added to plates containing cells. To facilitate the screen, 10 μL of DNA-transfection reagent complexes were added in duplicates to the top 4 and bottom 4 rows, resulting in two identical 48-well arrays per plate. Plates with transfected cells were incubated for 18–20 h at 37 °C/5% CO2. A screen of each tracer across the entire library using two different concentrations requires duplicate plates of transfected cells. Depending on the number of tracers being screened, transfections can be scaled up using the same ratios. The next day, for each tracer, four 20× screening solutions in tracer dilution buffer (Promega) were prepared: two duplicates at final concentration of 20 μM and two duplicates at a final concentration of 2 μM. A competing unmodified compound was added to one of each duplicate at a final concentration of 400 μM. The four resulting solutions were diluted 4-fold in Opti-MEM without serum or phenol red to generate 5× solutions (5 µM and 0.5 µM tracer +/− 100 μM competing compound). To screen the library, a BioTek MultiFlo FX liquid dispenser was used to dispense 22.5 µL of tracer solution to the top 4 rows and 22.5 µL tracer + competing compound solution to the 4 bottom rows. Plates were briefly mixed on an orbital shaker and incubated for 1.5 h at room temperature. […]"}, "[2]": {"biological_target": "T2, GRM3 (Homo sapiens, UniProt Q14832)", "T2 construct": "purchased Promega (in-house HiBiT-GPCR construct library, NanoBRET)", "T2 sequence (Q14832 23-879)": "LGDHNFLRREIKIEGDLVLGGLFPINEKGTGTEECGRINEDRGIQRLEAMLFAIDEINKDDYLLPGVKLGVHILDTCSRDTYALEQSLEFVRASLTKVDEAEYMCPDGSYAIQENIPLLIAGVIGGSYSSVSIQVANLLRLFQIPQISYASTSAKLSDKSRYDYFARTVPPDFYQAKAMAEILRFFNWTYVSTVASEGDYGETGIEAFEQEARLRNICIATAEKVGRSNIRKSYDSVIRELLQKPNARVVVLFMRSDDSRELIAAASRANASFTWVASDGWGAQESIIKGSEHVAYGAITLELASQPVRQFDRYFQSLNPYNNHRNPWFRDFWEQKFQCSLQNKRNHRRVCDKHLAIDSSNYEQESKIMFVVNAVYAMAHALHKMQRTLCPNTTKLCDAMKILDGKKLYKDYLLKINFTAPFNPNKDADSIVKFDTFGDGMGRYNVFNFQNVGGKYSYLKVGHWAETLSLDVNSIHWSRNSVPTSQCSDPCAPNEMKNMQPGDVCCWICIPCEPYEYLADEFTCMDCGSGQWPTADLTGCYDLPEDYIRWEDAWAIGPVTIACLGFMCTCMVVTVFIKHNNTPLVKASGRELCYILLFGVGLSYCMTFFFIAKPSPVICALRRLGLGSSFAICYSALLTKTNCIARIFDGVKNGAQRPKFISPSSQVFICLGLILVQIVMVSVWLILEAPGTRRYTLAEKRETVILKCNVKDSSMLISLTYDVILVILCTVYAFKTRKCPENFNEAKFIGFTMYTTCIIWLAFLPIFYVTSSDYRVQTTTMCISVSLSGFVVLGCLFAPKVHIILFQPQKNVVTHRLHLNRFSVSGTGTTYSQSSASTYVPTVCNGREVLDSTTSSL", "assay": "NanoBRET screen HiBiT-GRM3 in HEK293", "type": "binding", "details": "GRM3", "description": "as §1, §2"}}}
{"smiles": "COc1ccccc1N1CCN(CCCCN2C(=O)c3ccc(CNC(=O)CCOCCOCCOCCOCCNC(=O)CCc4ccc5n4[B-](F)(F)[N+]4=C(c6ccc[nH]6)C=CC4=C5)cc3C2=O)CC1", "note": "[NAN-190-2-NB590]", "values": [{"measurement": "NanoBRET Fold Response", "setting": "[1]; tracer 0.1μM", "value": 0.99}, {"measurement": "NanoBRET Fold Response", "setting": "[1]; tracer 1μM", "value": 1.02}, {"measurement": "NanoBRET Fold Response", "setting": "[2]; tracer 0.1μM", "value": 0.95}]}
{"smiles": "O=C(CCOCCOCCOCCOCCNC(=O)CCc1ccc2n1[B-](F)(F)[N+]1=C(c3ccc[nH]3)C=CC1=C2)NCCCN1CCN(C2=Nc3ccccc3Oc3ccc(Cl)cc32)CC1", "note": "[Loxapine-a-2-NB590]", "values": [{"measurement": "NanoBRET Fold Response", "setting": "[1]; tracer 0.1μM", "value": 1.00}, {"measurement": "NanoBRET Fold Response", "setting": "[1]; tracer 1μM", "value": 0.97}, {"measurement": "NanoBRET Fold Response", "setting": "[2]; tracer 0.1μM", "value": 0.99}, {"measurement": "NanoBRET Fold Response", "setting": "[2]; tracer 1μM", "value": 1.03}]}
{"smiles": "CCCn1c(=O)c2[nH]c(-c3ccc(OCC(=O)NCCNC(=O)CCOCCNC(=O)c4ccc(CNC(=O)CCc5ccc6n5[B-](F)(F)[N+]5=C(c7ccc[nH]7)C=CC5=C6)cc4)cc3)nc2n(CCC)c1=O", "note": "[XAC-3-NB590]", "values": [{"measurement": "NanoBRET Fold Response", "setting": "[1]; tracer 0.1μM", "value": 1.00}, {"measurement": "NanoBRET Fold Response", "setting": "[1]; tracer 1μM", "value": 1.26}, {"measurement": "NanoBRET Fold Response", "setting": "[2]; tracer 0.1μM", "value": 1.02}, {"measurement": "NanoBRET Fold Response", "setting": "[2]; tracer 1μM", "value": 1.10}]}
{"smiles": "CCOC(=O)c1cc(C#N)c(N2CCC(C(=O)NS(=O)(=O)Cc3ccccc3/C=C/C(=O)NCCNC(=O)CCc3ccc4n3[B-](F)(F)[N+]3=C(c5ccc[nH]5)C=CC3=C4)CC2)nc1C", "note": "[AZD1283-1-NB590]", "values": [{"measurement": "NanoBRET Fold Response", "setting": "[1]; 0.1μM", "value": 1.06}, {"measurement": "NanoBRET Fold Response", "setting": "[1]; 1μM", "value": 1.08}, {"measurement": "NanoBRET Fold Response", "setting": "[2]; 0.1μM", "value": 0.97}, {"measurement": "NanoBRET Fold Response", "setting": "[2]; 1μM", "value": 0.99}]}
